The target in assay [1] is T1, α1βB glycine receptor (ZF-α1GlyR subunit) (Danio rerio, UniProt O93430+Q6DC22).
T1 sequence (O93430 25-444): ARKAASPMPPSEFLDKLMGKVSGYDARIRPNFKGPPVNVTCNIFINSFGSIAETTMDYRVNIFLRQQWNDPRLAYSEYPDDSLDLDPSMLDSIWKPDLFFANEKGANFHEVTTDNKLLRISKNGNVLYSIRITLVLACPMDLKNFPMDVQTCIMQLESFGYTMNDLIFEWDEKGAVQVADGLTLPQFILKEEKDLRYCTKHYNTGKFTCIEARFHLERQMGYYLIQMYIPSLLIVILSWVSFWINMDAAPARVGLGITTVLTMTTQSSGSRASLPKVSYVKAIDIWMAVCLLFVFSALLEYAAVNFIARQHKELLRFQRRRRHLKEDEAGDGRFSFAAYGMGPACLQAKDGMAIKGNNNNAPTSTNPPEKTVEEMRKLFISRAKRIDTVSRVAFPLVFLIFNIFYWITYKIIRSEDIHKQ
T1 sequence (Q6DC22 23-494): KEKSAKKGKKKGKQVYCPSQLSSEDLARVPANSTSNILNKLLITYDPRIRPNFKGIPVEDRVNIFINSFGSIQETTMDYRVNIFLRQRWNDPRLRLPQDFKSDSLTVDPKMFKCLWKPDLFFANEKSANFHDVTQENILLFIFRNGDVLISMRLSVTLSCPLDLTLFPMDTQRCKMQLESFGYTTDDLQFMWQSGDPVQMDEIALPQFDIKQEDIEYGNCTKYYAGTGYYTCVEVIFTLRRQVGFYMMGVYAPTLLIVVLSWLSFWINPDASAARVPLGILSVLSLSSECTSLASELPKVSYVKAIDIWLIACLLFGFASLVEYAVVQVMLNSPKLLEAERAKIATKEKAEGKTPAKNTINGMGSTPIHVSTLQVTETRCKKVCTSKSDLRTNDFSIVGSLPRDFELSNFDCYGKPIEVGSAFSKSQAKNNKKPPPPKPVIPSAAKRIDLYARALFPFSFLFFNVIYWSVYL
Nature of the assay: cryo-EM structure, […] Å ([…] glycine); EC50 from whole-cell currents in HEK […] T cells (homomeric α[…]). On the set-up: gene glra1; full-length α1GlyR (NP_571477.1) with C-terminal thrombin site and 8xHis tag, 4α:1β heteropentamer; with βBGlyR (glrbb, NP_001003587.1); rat gephyrin E domain co-purified (not resolved). It counts as cell-based. The source says:
The carboxyl oxygens form hydrogen bonds with αS153 (βS173) on Loop E

For assay [2], the target named is T1, α1βB glycine receptor (ZF-α1GlyR subunit). On the set-up: gene glra1.
Assay [3] deals with T2, zebrafish glycine receptor βB subunit (ZF-βBGlyR), full length (zebrafish, UniProt Q6DC22 1-494, N-glycans at N54 and N241).
T2 construct: glycine receptor βB subunit, zebrafish, NCBI NP_001003587.1, codon-optimised full-length gene; One copy stands in the αβGlyR heteropentamer (4α:1β); also called βGlyR; GlyRβB; source: Sf9 (ExpiSf9) cells, baculovirus (pFastBacDual, polyhedrin promoter), co-expressed with α1GlyR and Geph-E
T2 sequence (looked up): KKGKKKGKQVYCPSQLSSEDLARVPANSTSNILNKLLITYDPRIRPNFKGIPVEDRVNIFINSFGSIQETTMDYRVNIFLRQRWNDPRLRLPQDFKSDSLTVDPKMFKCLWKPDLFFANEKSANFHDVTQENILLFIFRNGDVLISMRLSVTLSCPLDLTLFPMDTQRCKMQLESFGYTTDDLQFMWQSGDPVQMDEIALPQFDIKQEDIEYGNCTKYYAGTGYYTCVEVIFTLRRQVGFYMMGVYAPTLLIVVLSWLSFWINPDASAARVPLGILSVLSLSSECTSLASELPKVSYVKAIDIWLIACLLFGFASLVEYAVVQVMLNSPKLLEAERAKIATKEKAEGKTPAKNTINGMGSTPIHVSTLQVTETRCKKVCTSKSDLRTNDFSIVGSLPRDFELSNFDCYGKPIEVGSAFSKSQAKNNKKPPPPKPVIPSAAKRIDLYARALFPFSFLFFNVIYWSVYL
Nature of the assay: cryo-EM structure; αβGlyR-Geph-E sample co-expressed in Sf9 and co-purified in DDM, vitrified on graphene-oxide grids with 100 µM strychnine, 1 mM glycine, or 1 mM glycine and 20 µM ivermectin; no fiduciary marker. As to conditions: partners not purified.

The term EC50 denotes the midpoint of the concentration-response curve. In turn, `NCC(=O)O` [glycine] returned an EC50 in assay [1] of 63 ± 13 µM.

As to `O=C1C[C@@H]2OCC=C3CN4CC[C@]56c7ccccc7N1[C@H]5[C@H]2[C@H]3C[C@H]46` [strychnine], in assay [2], the “cryo-EM structure, 2.97 Å (100 μM strychnine)” value was “Strychnine density is well-defined in αβGlyR-Stry and is essentially in the same orientation across all five subunits”.

B1: zebrafish glycine receptor α1 subunit (ZF-α1GlyR), full length (receptor, UniProt O93430 25-444, looked up)
chain: ARKAASPMPPSEFLDKLMGKVSGYDARIRPNFKGPPVNVTCNIFINSFGSIAETTMDYRVNIFLRQQWNDPRLAYSEYPDDSLDLDPSMLDSIWKPDLFFANEKGANFHEVTTDNKLLRISKNGNVLYSIRITLVLACPMDLKNFPMDVQTCIMQLESFGYTMNDLIFEWDEKGAVQVADGLTLPQFILKEEKDLRYCTKHYNTGKFTCIEARFHLERQMGYYLIQMYIPSLLIVILSWVSFWINMDAAPARVGLGITTVLTMTTQSSGSRASLPKVSYVKAIDIWMAVCLLFVFSALLEYAAVNFIARQHKELLRFQRRRRHLKEDEAGDGRFSFAAYGMGPACLQAKDGMAIKGNNNNAPTSTNPPEKTVEEMRKLFISRAKRIDTVSRVAFPLVFLIFNIFYWITYKIIRSEDIHKQ
modifications: N-glycan at N62
notes: glycine receptor α1 subunit, zebrafish, NCBI NP_571477.1, codon-optimised full-length gene; Four copies stand in the αβGlyR heteropentamer (4α:1β); The full-length gene was expressed; also called αGlyR; GlyRα1; source: Sf9 (ExpiSf9) cells, baculovirus (pFastBacDual, p10 promoter), co-expressed with βBGlyR and Geph-E; not shown: 8x His (after a thrombin site LVPRGS), C-terminal, kept
For B1, the “stoichiometry N” value in assay [3] was 4 α per β.
